The target in the assay is human APJ receptor (Homo sapiens (Human), UniProt P35414). The experiment in a line: Intracellular cAMP accumulation assay (APJ hcAMP, HTRF). In kind it is cell-based. The note with it: HEK293 cells stably expressing human APJ receptor; inhibition of forskolin-mediated cAMP production; read-out: hAPJ cAMP EC50 (nM) Potency range. The gist of the method:
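cAMP inhibition was quantified by HTRF against a cAMP standard curve, with EC50 fitted to a variable-slope sigmoidal curve. Compounds acted on 5,000 APJ-stable HEK293 cells for 30 minutes at room temperature alongside 2 μM forskolin and […] IBMX. Detection reagents were incubated 60 min.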
(In general: cAMP levels reflect the balance of adenylyl cyclase and phosphodiesterase activity.)

Sequence of human APJ receptor (P35414 whole entry): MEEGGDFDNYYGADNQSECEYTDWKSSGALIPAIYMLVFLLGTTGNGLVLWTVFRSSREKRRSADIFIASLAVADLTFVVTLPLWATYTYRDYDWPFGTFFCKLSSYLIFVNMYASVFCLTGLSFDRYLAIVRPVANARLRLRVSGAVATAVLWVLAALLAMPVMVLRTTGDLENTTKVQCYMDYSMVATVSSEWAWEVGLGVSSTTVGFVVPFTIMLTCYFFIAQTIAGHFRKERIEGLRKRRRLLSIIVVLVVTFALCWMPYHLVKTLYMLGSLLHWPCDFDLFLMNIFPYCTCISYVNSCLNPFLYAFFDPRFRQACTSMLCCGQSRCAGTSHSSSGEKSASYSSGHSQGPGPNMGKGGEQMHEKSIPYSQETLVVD

What is called EC50 is the concentration giving half of the maximal effect. As for `COc1cccc(OC)c1-c1c(C2CCCC2)nc(O)c(-c2nnc(Cc3ccc(Cl)cn3)o2)c1O` [Example 238, 3-{5-[(5-chloropyridin-2-yl)methyl]-1,3,4-oxadiazol-2-yl}-6-cyclopentyl-5-(2,6-dimethoxyphenyl) pyridine-2,4-diol], the EC50 lay within 0.01 to 10 nM.

`COc1cccc(OC)c1-c1c(C2CCCC2)[nH]c(=O)c(-c2nnc(Cc3ccc(Cl)cc3)o2)c1O` [Example 239, 3-{5-[(4-chlorophenyl)methyl]-1,3,4-oxadiazol-2-yl}-6-cyclopentyl-5-(2,6-dimethoxyphenyl) pyridine-2,4-diol]: the EC50 is 0.01 to 10 nM.

For the compound `COCCOCc1nc(O)c(-c2nnc(Cc3ccc(Cl)cn3)o2)c(O)c1-c1c(OC)cccc1OC` [Example 240, 3-{5-[(5-chloropyridin-2-yl)methyl]-1,3,4-oxadiazol-2-yl}-5-(2,6-dimethoxyphenyl)-6-[(2-methoxyethoxy)methyl] pyridine-2,4-diol], the EC50 lay within 0.01 to 10 nM.

Take `COCCOCc1nc(O)c(-c2nnc(Cc3noc4ccccc34)o2)c(O)c1-c1c(OC)cccc1OC` [Example 242, 3-{5-[(1,2-benzoxazol-3-yl)methyl]-1,3,4-oxadiazol-2-yl}-5-(2,6-dimethoxyphenyl)-6-[(2-methoxyethoxy)methyl]pyridine-2,4-diol]: the EC50 lay within 10 to 100 nM.

As to `CCOCc1nc(O)c(-c2nnc(CNc3ccccc3)o2)c(O)c1-c1c(OC)cccc1OC` [Example 243, 5-(2,6-dimethoxyphenyl)-6-(ethoxymethyl)-3-{5-[(phenylamino)methyl]-1,3,4-oxadiazol-2-yl}pyridine-2,4-diol], the EC50 was 10 to 100 nM.

With `COCCOCc1nc(O)c(-c2nnc(Cc3ccc(Cl)cc3)o2)c(O)c1-c1c(OC)cccc1OC` [Example 244, 3-{5-[(4-chlorophenyl)methyl]-1,3,4-oxadiazol-2-yl}-5-(2,6-dimethoxyphenyl)-6-[(2-methoxyethoxy)methyl]pyridine-2,4-diol], the EC50 lay within 10 to 100 nM.

`CCCCc1nc(O)c(-c2nnc(CNC(=O)c3ccccc3)o2)c(O)c1-c1cc(OC)ccc1OC` [Example 246, N-({5-[6-butyl-5-(2,5-dimethoxyphenyl)-2,4-dihydroxy-pyridin-3-yl]-1,3,4-oxadiazol-2-yl}methyl) benzamide]: the EC50 is 0.01 to 10 nM.

With `CCCCc1nc(O)c(-c2nnc(CNC(=O)c3ccccc3)o2)c(O)c1-c1cc(C(C)C)ccc1OC` [Example 247, N-[(5-{6-butyl-2,4-dihydroxy-5-[2-methoxy-5-(propan-2-yl)phenyl]pyridin-3-yl}-1,3,4-oxadiazol-2-yl)methyl] benzamide], the EC50 was in the range of 0.01 to 10 nM.

On to `CCOCc1nc(O)c(-c2nnc(Cc3noc4ccccc34)o2)c(O)c1-c1ccccc1OC` [Example 248, 3-{5-[(1,2-benzoxazol-3-yl)methyl]-1,3,4-oxadiazol-2-yl}-6-(ethoxymethyl)-5-(2-methoxyphenyl) pyridine-2,4-diol], for which the EC50 was in the range of 0.01 to 10 nM.

On to `CCOCc1nc(O)c(-c2nnc(Cc3ccc(Cl)cc3)o2)c(O)c1-c1ccccc1OC` [Example 249, 3-{5-[(4-chlorophenyl)methyl]-1,3,4-oxadiazol-2-yl}-6-(ethoxymethyl)-5-(2-methoxyphenyl) pyridine-2,4-diol], for which the EC50 is 0.01 to 10 nM.

As to `CCCCc1nc(O)c(-c2nnc(CNC(=O)c3ccccc3)o2)c(O)c1-c1cccc(OC)c1OC` [Example 250, N-({5-[6-butyl-5-{2,3-dimethoxyphenyl)-2,4-dihydroxy-pyridin-3-yl]-1,3,4-oxadiazol-2-yl}methyl) benzamide], the EC50 fell in the range of 0.01 to 10 nM.

For the compound `CCOCc1nc(O)c(-c2nnc(CNC(=O)c3ccccc3)o2)c(O)c1-c1ccccc1OC` [Example 251, N-({5-[6-(ethoxymethyl)-2,4-dihydroxy-5-(2-methoxyphenyl)-pyridin-3-yl]-1,3,4-oxadiazol-2-yl}methyl) benzamide], the EC50 is 0.01 to 10 nM.

In the case of `CCCCc1nc(O)c(-c2nnc(CC(=O)Nc3cccnc3)o2)c(O)c1-c1c(OC)cccc1OC` [Example 252, 2-{5-[6-butyl-5-(2,6-dimethoxyphenyl)-2,4-dihydroxy-pyridin-3-yl]-1,3,4-oxadiazol-2-yl}-N-(pyridin-3-yl)acetamide], the EC50 was 0.01 to 10 nM.

For the compound `CCOCc1nc(O)c(-c2nnc(CC(=O)Nc3nccs3)o2)c(O)c1-c1c(OC)cccc1OC` [Example 253, 2-{5-[5-(2,6-dimethoxyphenyl)-6-(ethoxymethyl)-2,4-dihydroxypyridin-3-yl]-1,3,4-oxadiazol-2-yl}-N-(1,3-thiazol-2-yl)acetamide], the EC50 lay in the range of 0.01 to 10 nM.

Take `CCCCc1nc(O)c(-c2nnc(CC(=O)NCc3nc4ccccc4s3)o2)c(O)c1-c1c(OC)cccc1OC` [Example 254, N-[(1,3-benzothiazol-2-yl)methyl]-2-{5-[6-butyl-5-(2,6-dimethoxyphenyl)-2,4-dihydroxypyridin-3-yl]-1,3,4-oxadiazol-2-yl}acetamide]: the EC50 was 0.01 to 10 nM.

In the case of `CCCCc1nc(O)c(-c2nnc(CC(=O)NCc3cccnc3)o2)c(O)c1-c1c(OC)cccc1OC` [Example 255, 2-{5-[6-butyl-5-(2,6-dimethoxyphenyl)-2,4-dihydroxy-pyridin-3-yl]-1,3,4-oxadiazol-2-yl}-N-[(pyridin-3-yl)methyl] acetamide], the concentration giving a half-maximal response (EC50) lay in the range of 0.01 to 10 nM.

On to `CCCCc1nc(O)c(-c2nnc(CC(=O)NCc3ncco3)o2)c(O)c1-c1c(OC)cccc1OC` [Example 256, 2-{5-[6-butyl-5-(2,6-dimethoxyphenyl)-2,4-dihydroxypyridin-3-yl]-1,3,4-oxadiazol-2-yl}-N-[(1,3-oxazol-2-yl)methyl] acetamide], for which the EC50 lay within 0.01 to 10 nM.

For `CCCCc1nc(O)c(-c2nnc(CC(=O)NCCc3ccc(S(N)(=O)=O)cc3)o2)c(O)c1-c1c(OC)cccc1OC` [Example 257, 2-{5-[6-butyl-5-(2,6-dimethoxyphenyl)-2,4-dihydroxy-pyridin-3-yl]-1,3,4-oxadiazol-2-yl}-N-[2-(4-sulfamoylphenyl)ethyl]acetamide], the EC50 fell in the range of 0.01 to 10 nM.

For `CCCCc1nc(O)c(-c2nnc(CC(=O)NCCc3ccccc3Cl)o2)c(O)c1-c1c(OC)cccc1OC` [Example 258, 2-{5-[6-butyl-5-(2,6-dimethoxyphenyl)-2,4-dihydroxy-pyridin-3-yl]-1,3,4-oxadiazol-2-yl}-N-[2-(2-chlorophenyl)ethyl]acetamide], the EC50 lay within 0.01 to 10 nM.

As to `CCCCc1nc(O)c(-c2nnc(CC(=O)NCc3cccc(Cl)c3)o2)c(O)c1-c1c(OC)cccc1OC` [Example 259, 2-{5-[6-butyl-5-(2,6-dimethoxyphenyl)-2,4-dihydroxy-pyridin-3-yl]-1,3,4-oxadiazol-2-yl}-N-[(3-chlorophenyl)methyl]acetamide], the EC50 was in the range of 0.01 to 10 nM.

For `CCCCc1nc(O)c(-c2nnc(CC(=O)N(C)Cc3ccccc3)o2)c(O)c1-c1c(OC)cccc1OC` [Example 260, N-benzyl-2-{5-[6-butyl-5-(2,6-dimethoxyphenyl)-2,4-dihydroxy-pyridin-3-yl]-1,3,4-oxadiazol-2-yl}-N-methylacetamide], the EC50 was in the range of 0.01 to 10 nM.

With `CCCCc1nc(O)c(-c2nnc(CC(=O)N(C)CCc3ccccc3)o2)c(O)c1-c1c(OC)cccc1OC` [Example 261, 2-{5-[6-butyl-5-(2,6-dimethoxyphenyl)-2,4-dihydroxy-pyridin-3-yl]-1,3,4-oxadiazol-2-yl}-N-methyl-N-(2-phenylethyl) acetamide], the EC50 was in the range of 0.01 to 10 nM.

Source of the values: US10336739B2, “4-hydroxy-3-(heteroaryl)pyridine-2-one APJ agonists” (BRISTOL-MYERS SQUIBB COMPANY, priority 2015, dated 2019).
